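Values below derive from 48-hour exposures of cells grown in 96-well plates, with endpoints linearly interpolated between the two concentrations bracketing the appropriate inhibition level. At the GI50, growth is halved. Definition used: TGI = concentration required for complete inhibition of growth.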
Assays:
Test in all cases: NCI tumour cell line growth inhibition, 48 h
HS 578T breast = test system: HS 578T breast
DU-145 prostate = test system: DU-145 prostate
MCF7 breast = test system: MCF7 breast
BT-549 breast = test system: BT-549 breast
T-47D breast = test system: T-47D breast
MDA-N = test system: MDA-N
LXFL 529 NSCLC = test system: LXFL 529 NSCLC
DLD-1 colon = test system: DLD-1 colon

SMILES | GI50 (HS 578T breast) [µM] | TGI (HS 578T breast) [µM] | GI50 (DU-145 prostate) [µM] | TGI (DU-145 prostate) [µM] | GI50 (MCF7 breast) [µM] | TGI (MCF7 breast) [µM] | GI50 (BT-549 breast) [µM] | TGI (BT-549 breast) [µM] | GI50 (T-47D breast) [µM] | TGI (T-47D breast) [µM] | TGI (MDA-N) [µM] | TGI (LXFL 529 NSCLC) [µM] | TGI (DLD-1 colon) [µM] | GI50 (LXFL 529 NSCLC) [µM] | GI50 (MDA-N) [µM]
CNC(=O)c1cc(Oc2ccc3nc(NC(=O)Nc4cc(C(F)(F)F)cc(C(F)(F)F)c4)sc3c2)ccn1 | 1.65 | 4.84 | 1.25 | 2.98 | 1.05 | 2.93 | 1.34 | 3.07 | 0.479 | 2.3 | – | – | – | – | –
COc1ccc2c(c1)CC1N(C)CCC13CCCCC23 (centres undefined) | – | > 100 | – | > 100 | – | > 100 | – | > 100 | – | > 100 | > 100 | – | – | – | –
CN(CCCCN)c1ccc2c(=O)[nH][nH]c(=O)c2c1 | – | – | – | – | – | – | – | – | – | – | – | > 100 | > 100 | – | –
Cc1ccnc(NC(c2ccccc2)c2ccc3cccnc3c2O)c1 (centres undefined) | 3.21 | 35.1 | 4.9 | > 100 | 5.18 | 30.4 | – | – | 4.22 | 35.1 | – | – | – | – | –
COc1cc(CC2C(=O)OCC2[C@@H](OC(C)=O)c2ccc3c(c2)OCO3)c(Br)c(OC)c1OC (some centres undefined) | – | – | – | – | – | – | – | – | – | – | – | > 100 | > 100 | – | –
CSCC(COC(C)=O)(CSC)c1ccncc1 | – | – | – | – | – | – | – | – | – | – | – | > 100 | – | – | –
COC(=O)C1=Cc2cn(S(=O)(=O)c3ccc(C)cc3)c3cccc(c23)C(C=C(C)C)N1C(C)=O (centres undefined) | – | – | – | – | – | – | – | – | – | – | – | > 100 | > 100 | – | –
COc1c(OC)c(OC)c(-c2cc(=O)c3c(OC)c(OC)c(OC)c(OC)c3o2)c(OC)c1OC | – | > 100 | – | > 100 | – | – | – | > 100 | – | 47.9 | > 100 | – | – | – | –
C=C(C)[C@@H]1CC[C@]2(C(=O)N3CCN(C)CC3)CC[C@]3(C)[C@H](CC[C@@H]4[C@@]5(C)CC[C@H](O)C(C)(C)[C@@H]5CC[C@]43C)[C@@H]12 | 1.94 | 4.68 | 1.85 | 3.4 | 1.79 | 4.22 | 1.74 | 3.49 | 1.48 | 3.75 | – | – | – | – | –
O=C(c1ccccc1)c1c2n(c3c1cc(O)c1ccccc13)CCN2 | 10.9 | > 100 | 13.2 | 27.1 | 1.97 | 3.87 | 13.5 | 30.6 | 1.77 | 3.99 | – | – | – | – | –
Cc1cc(C)c(C2=NO[C@@H]3C(=O)N(c4ccc(Cc5ccc(N6C(=O)[C@H]7C(c8c(C)cc(C)cc8C)=NO[C@H]7C6=O)cc5)cc4)C(=O)[C@H]23)c(C)c1 | – | – | – | – | – | – | – | – | – | – | – | > 100 | > 100 | – | –
COC1/C=C/OC2(C)Oc3c(C)c(O)c4c(O)c(c(C=NOC(c5ccccc5)c5ccccc5)c(O)c4c3C2=O)NC(=O)/C(C)=C/C=C/C(C)C(O)C(C)C(O)C(C)C(OC(C)=O)C1C (centres undefined) | 1.5 | 5.17 | 2.05 | 6.87 | 1.31 | 3.81 | 1.62 | 5.47 | 1.87 | 6.71 | – | – | – | – | –
[Au+].c1c[n-]cn1.c1ccc([PH+](c2ccccc2)c2ccccc2)cc1 | 17.1 | > 100 | 17.2 | 36.5 | – | – | 3.29 | > 100 | 2.02 | 4.74 | 12.9 | 2.95 | – | 1.59 | 3.17
COC(=O)[C@H](C)[C@@H]1CC[C@](C)(CCC2=C(C)CCCC2(C)C)OO1 | – | > 25 | – | > 25 | – | > 25 | – | > 25 | – | > 25 | > 25 | – | – | – | –
COc1cc2oc(-c3ccc(O)cc3)cc(=O)c2c(OC)c1O | – | > 100 | – | > 100 | – | > 100 | – | > 100 | – | 88.2 | > 100 | – | – | – | –
COc1ccc(N2C(=O)C3C=CC(n4[nH]c(=O)n(Cc5ccccc5)c4=O)CC3C2=O)cc1 (centres undefined) | – | – | – | – | – | – | – | – | – | – | – | > 100 | > 100 | – | –
O=c1[nH]c(-c2ccc([N+](=O)[O-])cc2)nc2ccc(Cl)cc12 | – | – | – | – | – | – | – | – | – | – | – | > 100 | – | – | –
CCOC(=O)Nc1cc(-c2ccc(C)c(NS(C)(=O)=O)c2)nn2c(C)nnc12 | 0.563 | 6.82 | 5.02 | > 100 | 0.395 | > 100 | 5.35 | > 100 | 1.47 | 17 | – | – | – | – | –
NCCCCCCCCCn1c2c(c3ccccc3c1=O)C(=O)c1ccccc1-2 | 10.3 | 21.9 | 5.98 | 15.9 | 9.62 | 26.1 | 9.26 | 18.9 | 9.33 | 22 | – | – | – | – | –
CS(=O)(=O)c1ccc(-c2cnc(NCc3ccco3)n3cnnc23)cc1 | > 100 | > 100 | > 100 | > 100 | 60.4 | > 100 | > 100 | > 100 | 47.8 | > 100 | – | – | – | – | –
Nc1nc(-c2ccc3ccccc3c2)cc(-c2cc(-c3ccc4ccccc4c3)nc(N)n2)n1 | – | > 100 | – | > 100 | – | > 100 | – | > 100 | – | > 100 | > 100 | – | – | – | –
O=C1NC2OC(CO)C(O)C(O)C2O1 (centres undefined) | – | – | – | – | – | – | – | – | – | – | – | > 100 | > 100 | – | –
CC/C(=C(/CC)c1ccc(O)cc1)c1ccc(O)cc1 | 4.17 | 32 | 10 | 22.4 | 5.78 | 19.3 | 6.16 | 21.5 | 6.85 | 47 | – | – | – | – | –
CN1c2ccccc2S(=O)(=O)n2c(COc3ccccc3)nnc21 | – | > 100 | – | > 100 | – | > 100 | – | > 100 | – | > 100 | > 100 | – | – | – | –
CCN(CC)CCNC(=O)C(Cl)=C1C(Cl)=C(Cl)C(Cl)=C1Cl | 3.01 | 25.3 | 2.78 | 10.8 | 2.8 | 13.5 | 12.6 | 25.3 | 4.19 | 45.6 | – | – | – | – | –
O=[N+]([O-])c1cccc([I+]c2ccccc2)c1 | 10.1 | 68.2 | 11.1 | 24.3 | 8.29 | 41.5 | 10.5 | 23.1 | 8.28 | 33.4 | – | – | – | – | –
Cc1nc2cc(Nc3nc(Nc4ccc(F)cc4)nc(N4CCCC4)n3)ccc2n1Cc1ccccc1 | 2.23 | 6.67 | 1.87 | 3.35 | 2.22 | 7.44 | 1.88 | 3.5 | 2.18 | 4.94 | – | – | – | – | –

Reference: PubChem BioAssay (NCI)
